Source: PubChem BioAssay (NCI)
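Following 48 hours of exposure in 96-well plates, responses at five concentrations were used to interpolate endpoints linearly. GI50 marks 50% less growth. TGI: total growth inhibition.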

Experiments:
Assay in all cases: NCI anticancer screen, dose series, 48 h
[1] = tested on: 786-0 renal
[2] = tested on: A498 renal
[3] = tested on: A549 NSCLC
[4] = tested on: ACHN renal
[5] = tested on: BT-549 breast
[6] = tested on: CAKI-1 renal
[7] = tested on: COLO 205 colon
[8] = tested on: DU-145 prostate
[9] = tested on: EKVX NSCLC
[10] = tested on: HCC-2998 colon
[11] = tested on: HCT-116 colon
[12] = tested on: HCT-15 colon
[13] = tested on: HL-60(TB) leukemia
[14] = tested on: HOP-62 NSCLC
[15] = tested on: HOP-92 NSCLC
[16] = tested on: HS 578T breast
[17] = tested on: HT29 colon
[18] = tested on: IGROV1 ovarian
[19] = tested on: K-562 leukemia
[20] = tested on: KM12 colon
[21] = tested on: LOX IMVI melanoma
[22] = tested on: M14 melanoma
[23] = tested on: MALME-3M melanoma
[24] = tested on: MCF7 breast
[25] = tested on: MDA-MB-231 breast
[26] = tested on: MDA-MB-435
[27] = tested on: MOLT-4 leukemia
[28] = tested on: NCI-H226 lung
[29] = tested on: NCI-H23 lung
[30] = tested on: NCI-H460 lung
[31] = tested on: NCI/ADR-RES ovarian
[32] = tested on: OVCAR-3 ovarian
[33] = tested on: OVCAR-4 ovarian
[34] = tested on: OVCAR-5 ovarian
[35] = tested on: OVCAR-8 ovarian
[36] = tested on: PC-3 prostate
[37] = tested on: RPMI-8226 leukemia
[38] = tested on: RXF 393 renal
[39] = tested on: SF-268 CNS
[40] = tested on: SF-295 CNS
[41] = tested on: SF-539 CNS
[42] = tested on: SK-MEL-2 melanoma
[43] = tested on: SK-MEL-28 melanoma
[44] = tested on: SK-MEL-5 melanoma
[45] = tested on: SK-OV-3 ovarian
[46] = tested on: SN12C renal
[47] = tested on: SNB-19 CNS
[48] = tested on: SNB-75 CNS
[49] = tested on: SR leukemia
[50] = tested on: SW-620 colon
[51] = tested on: T-47D breast
[52] = tested on: TK-10 renal
[53] = tested on: U251 CNS
[54] = tested on: UACC-257 melanoma
[55] = tested on: UACC-62 melanoma
[56] = tested on: UO-31 renal

COc1cccc(-c2nn(-c3ccccc3)cc2-c2ccnc(NCCCNC(=O)Nc3ccc(Cl)c(Cl)c3)c2)c1
GI50 [1]: 1.82 µM | TGI [1]: 3.97 µM | GI50 [2]: 2.15 µM | TGI [2]: 8.08 µM | GI50 [3]: 3.79 µM | TGI [3]: 13.4 µM | GI50 [4]: 4.23 µM | TGI [4]: 22.4 µM | GI50 [5]: 3.2 µM | TGI [5]: 11.2 µM | GI50 [6]: 3.16 µM | TGI [6]: 15 µM | GI50 [7]: 1.87 µM | TGI [7]: 3.82 µM | GI50 [8]: 5.47 µM | TGI [8]: 23 µM | GI50 [9]: 3.51 µM | TGI [9]: 17.5 µM | GI50 [10]: 2.17 µM | TGI [10]: 4.22 µM | GI50 [11]: 2.33 µM | TGI [11]: 5.75 µM | GI50 [12]: 2.4 µM | TGI [12]: 6.66 µM | GI50 [13]: 2.51 µM | TGI [13]: 5.81 µM | GI50 [14]: 3.23 µM | TGI [14]: 8.88 µM | GI50 [15]: 2.32 µM | TGI [15]: 7.68 µM | GI50 [16]: 2.35 µM | TGI [16]: 7.53 µM | GI50 [17]: 2.55 µM | TGI [17]: 5.19 µM | GI50 [18]: 4.24 µM | TGI [18]: 19.4 µM | GI50 [19]: 2.38 µM | TGI [19]: 5.33 µM | GI50 [20]: 2.75 µM | TGI [20]: 11.3 µM | GI50 [21]: 1.64 µM | TGI [21]: 3.03 µM | GI50 [22]: 1.97 µM | TGI [22]: 4.45 µM | GI50 [23]: 1.86 µM | TGI [23]: 3.9 µM | GI50 [24]: 1.94 µM | TGI [24]: 3.71 µM | GI50 [25]: 1.97 µM | TGI [25]: 5.03 µM | GI50 [26]: 2.01 µM | TGI [26]: 4.82 µM | GI50 [27]: 1.95 µM | TGI [27]: 5.85 µM | GI50 [28]: 5.61 µM | TGI [28]: 41.6 µM | GI50 [29]: 3.16 µM | TGI [29]: 13.9 µM | GI50 [30]: 3.76 µM | TGI [30]: 14.7 µM | GI50 [31]: 2.19 µM | TGI [31]: 5.39 µM | GI50 [32]: 4.57 µM | TGI [32]: 17.3 µM | GI50 [33]: 3.55 µM | TGI [33]: 18.1 µM | GI50 [34]: 3.53 µM | TGI [34]: 25.4 µM | GI50 [35]: 3.22 µM | TGI [35]: 13.4 µM | GI50 [36]: 3.96 µM | TGI [36]: 22.4 µM | GI50 [37]: 2.13 µM | TGI [37]: 5.37 µM | GI50 [38]: 1.81 µM | TGI [38]: 4.87 µM | GI50 [39]: 3.32 µM | TGI [39]: 13.9 µM | GI50 [40]: 2.38 µM | TGI [40]: 6.43 µM | GI50 [41]: 2.25 µM | TGI [41]: 5.29 µM | GI50 [42]: 1.92 µM | TGI [42]: 4.07 µM | GI50 [43]: 1.93 µM | TGI [43]: 4.16 µM | GI50 [44]: 1.75 µM | TGI [44]: 3.32 µM | GI50 [45]: 4.92 µM | TGI [45]: 18.6 µM | GI50 [46]: 5.73 µM | TGI [46]: 25 µM | GI50 [47]: 4.01 µM | TGI [47]: 25.6 µM | GI50 [48]: 2.52 µM | TGI [48]: 19.2 µM | GI50 [49]: 1.73 µM | TGI [49]: 4.62 µM | GI50 [50]: 3.02 µM | TGI [50]: 10.1 µM | GI50 [51]: 2.41 µM | TGI [51]: 11.4 µM | GI50 [52]: 4.51 µM | TGI [52]: 17.1 µM | GI50 [53]: 3.1 µM | TGI [53]: 11.7 µM | GI50 [54]: 2.05 µM | TGI [54]: 5.38 µM | GI50 [55]: 1.91 µM | TGI [55]: 4 µM | GI50 [56]: 1.78 µM | TGI [56]: 5.65 µM
